# “Also recorded” adds a separate entry of the source.
# What was measured:
# [1] = Phase 1 dose-escalation study: safety; format: in vivo; settings: 200 mg, 400 mg, 800 mg, and 1200 mg QD, human patients, fed state
# Text: This is a first-in-human (FIH), single-arm, dose-escalation and expansion study to evaluate the safety, tolerability, PK, pharmacodynamics, and preliminary antitumor activity of Compound A administered orally in patients with advanced solid tumors and urothelial carcinoma. Subject enrollment and continuous safety assessment will be guided by a mTPI-2 design (Guo, 2017). Decisions for dose escalation and de-escalation will be made by a Safety Review Committee (SRC) comprised of the enrolling study Investigators and the Sponsor. To assess evidence of preliminary antitumor activity, a Simon 2-stage design (Simon, 1989) is used.
# Toxicity is evaluated according to National Cancer Institute Common Terminology Criteria for Adverse Events (AEs) (NCI-CTCAE) v5.0. DLT events are defined herein. AEs will be assessed, and laboratory values (chemistry, hematology, coagulation, thyroid function and urinalysis as specified herein), vital signs, and 12-lead triplicate electrocardiograms (ECGs) are obtained to evaluate the safety and tolerability of Compound A.
# A modified Toxicity Probability Interval (mTPI-2) design (Guo, 2017) with a target DLT rate of approximately 30% is applied for dose escalation and confirmation to determine the Compound A RP2D. Several dose levels of Compound A, planned from 200 mg QD to 1600 mg daily, are explored. […]
# [2] = Two stage gastric transfer non-sink dissolution test (0.1N HCl then FaSSIF); format: physicochemical; settings: 100 RPM
# Method: In vitro drug dissolution performance for both API forms and each SDI was evaluated by the two stage ‘gastric transfer’ non-sink dissolution test (Table 8), which simulates pH and bile salt concentrations for both gastric and intestinal exposure in a sample to perform assay. Pre-weighed SDI powder is briefly suspended in media (e.g., by 10 sec vortex mixing with 4.0 mL media) and transferred to a pre-heated (37° C.) volume of 50 mL of 0.1N HCl (aq) (simulated gastric fluid or SGF, pH ˜1.0, without pepsin or bile salts), in a USP Type 2 mini-vessel (100 mL total vessel volume) while stirring (paddles) at 100 rpm. […] Initial Compound A API measurements and SDI dissolution samples were determined utilizing a HPLC method (Table 7). […]
smiles,measurement,setting,value
"CC(C)c1cnn2c(N[C@@H]3CCc4[nH]c5ccccc5c4C3)nc(-c3cncc(F)c3)nc12 [Compound A, (R)—N-(2-(5-fluoropyridin-3-yl)-8-isopropylpyrazolo[1,5-a][1,3,5]triazin-4-yl)-2,3,4,9-tetrahydro-1H-carbazol-3-amine]",serious adverse events (SAEs),[1],without any drug-related serious adverse events; also recorded: no serious adverse events
same,AUC35-210 FaSSIF (area under the curve after transfer to FaSSIF from 35 to 210 minutes),[2],2100 min*μgA/mL
same,C210 (drug concentration at 180 minutes after transfer to FaSSIF),[2],4.5 μgA/mL
